Test in all cases: NCI tumour cell line growth inhibition, 48 h
Experiment [1] has as its system NCI-H226 lung.
Experiment [2] deals with SNB-19 CNS.
Experiment [3] has as its system OVCAR-4 ovarian.
The test system of experiment [4] is SR leukemia.
For experiment [5], the system named is RXF 393 renal.
Experiment [6] has as its system HOP-92 NSCLC.
Experiment [7] deals with SK-OV-3 ovarian.
Experiment [8] relates to HCT-15 colon.
The test system of experiment [9] is CAKI-1 renal.

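Following 48 hours of exposure in 96-well plates, responses at five concentrations were used to interpolate endpoints linearly. Here, GI50 denotes the concentration required for 50% inhibition of growth. Definition used: TGI = concentration required for complete inhibition of growth.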

For the compound `Cc1ccccc1NC(=O)/C(=N\NC(N)=S)C(C#N)c1ccccc1` (stereo unspecified), the TGI in experiment [1], in experiment [2], in experiment [3], in experiment [4], in experiment [5] and in experiment [6] was greater than 100 µM each time. In addition, the TGI in experiment [7] and in [8] was greater than 100 µM in each case.

Turning to `COC(=O)c1c(O)ccc(O)c1C(C(C)=O)C(C)=O`, the TGI in experiment [9], in experiment [2], in [3], in experiment [5], in experiment [6] and in [7] was greater than 100 µM each time. Further, the TGI in experiment [8] is greater than 100 µM.

Take `CN(c1ccccc1)c1cc2ccccc2nn1`: the TGI in experiment [9], in [1], in experiment [2], in [3], in experiment [4] and in [5] was greater than 100 µM each time. For the same compound, the TGI in experiment [6], in experiment [7] and in experiment [8] was greater than 100 µM in each case.

With `O=C(NC1CC1)c1c(O)[nH]c(=S)[nH]c1=O`, the TGI in experiment [9], in experiment [1], in experiment [2], in [3], in experiment [4] and in experiment [6] was greater than 100 µM throughout. Further, the TGI in [7] and in [8] was greater than 100 µM in each case.

Turning to `O=C(O)c1ccc2c(c1)C(=O)N(c1ccc(S(=O)(=O)c3ccc(N4C(=O)c5ccc(C(=O)O)cc5C4=O)cc3)cc1)C2=O`, the TGI in [9], in [1], in [2], in [3], in [4] and in [5] was greater than 100 µM in each case. Also, the TGI in experiment [7] and in experiment [8] was greater than 100 µM in each case.

As for `O=C(Oc1ccccc1)N(c1ccccc1)c1ccccc1`, the GI50 was 12.1 µM in [9]; 33.7 µM in experiment [1]; 40.7 µM in [2]; 25.1 µM in experiment [3]; 29 µM in [4]; 25.8 µM in experiment [5]. Also, the GI50 in [6] is 19 µM; in experiment [7] it was 47.3 µM; in experiment [8] it was 31.1 µM. The TGI in [9] is 37.6 µM; in experiment [1], greater than 100 µM; in experiment [2], greater than 100 µM; in experiment [3] it was greater than 100 µM; in [4], greater than 100 µM; in experiment [5] it was 92.6 µM. Also, the TGI is 66.9 µM in experiment [6], greater than 100 µM in [7] and greater than 100 µM in experiment [8].

In the case of `CC1(C)c2ccccc2N2C(c3ccccc3)=NOC21C` (stereo unspecified), the TGI in experiment [9], in [1], in [2], in experiment [3], in experiment [4] and in experiment [5] was greater than 100 µM throughout. The TGI in experiment [6], in experiment [7] and in experiment [8] was greater than 100 µM each time.

Turning to `C[P+]1(Cc2ccccc2)CCCC1`, the TGI in experiment [1], in experiment [2], in [4], in experiment [5], in [7] and in [8] was greater than 100 µM each time.

In the case of `CC1OC(n2cc(C(F)(F)F)c(=O)[nH]c2=O)C=CC1=O` (stereo unspecified), the TGI was found to be 66.1 µM in [1]; 30.6 µM in experiment [2]; 26.8 µM in experiment [3]; 33.3 µM in experiment [4]; 41 µM in experiment [6]; 44.9 µM in [7]. In [8], this compound showed a TGI of 47 µM.

For the compound `CCOC(=O)C1=C(C)NC(=O)NC1c1ccc(OC)cc1OC` (stereo unspecified), the TGI in [9], in [1], in [2], in [4], in [5] and in [6] was greater than 100 µM each time. The TGI in experiment [7] and in experiment [8] was greater than 100 µM throughout.

For `CC(=O)OCC1OC(n2cccnc2=O)C(OC(C)=O)C1OC(C)=O` (stereo unspecified), the TGI in experiment [9], in experiment [1], in [2], in experiment [3], in experiment [4] and in [5] was greater than 100 µM each time. For the same compound, the TGI in experiment [6], in experiment [7] and in experiment [8] was greater than 100 µM throughout.

`CN(C)NC1=C([N+](=O)[O-])C=NN(c2ccccc2)C1`: the TGI amounted to 3.64 µM in experiment [9]; 15.1 µM in experiment [1]; 4.98 µM in [2]; 3.22 µM in [3]; 2.51 µM in [4]; 3.46 µM in experiment [5]. Also, the TGI in experiment [6] came out at 3.76 µM; in experiment [7] it was 3.46 µM; in [8], 3.09 µM.

For the compound `N#C/C(=C\c1c(O)cc(O)cc1O)C(N)=O`, the TGI in experiment [9], in experiment [1], in experiment [2], in experiment [3], in [5] and in experiment [6] was greater than 100 µM throughout. Besides, the TGI in [7] and in [8] was greater than 100 µM each time.

On to `Cc1cccc(C)c1NC(=O)CCC(=O)NC(N)=NC#N`, for which the TGI in experiment [9], in experiment [1], in experiment [2], in experiment [3], in experiment [4] and in experiment [5] was greater than 100 µM each time. Moreover, the TGI in experiment [6], in [7] and in [8] was greater than 100 µM throughout.

With `Cn1[nH]cc2ccc3nc4ccccc4c(=O)c3c21`, the TGI in experiment [9] is 86.5 µM; in experiment [1], 45.5 µM; in experiment [2], greater than 100 µM; in [3], 75.8 µM; in experiment [4] it was greater than 100 µM; in experiment [5], 44.4 µM. The figures for the TGI in experiment [6], in [7] and in [8] were greater than 83 µM, greater than 100 µM and 97.4 µM, respectively.

`CC1(C)C(=O)OC(n2cc(F)c(=O)[nH]c2=O)C1=O` (stereo unspecified): the TGI in experiment [1] was greater than 100 µM; in experiment [2], greater than 100 µM; in [3], greater than 100 µM; in experiment [5] it was greater than 100 µM; in experiment [6] it was 98.6 µM; in experiment [7], greater than 100 µM. Besides, the TGI in [8] was greater than 100 µM.

With `Cc1ccccc1NC(=O)Cc1nc2ccccc2s1`, the TGI in experiment [9] was 36.8 µM; in [1], 34.9 µM; in experiment [2], greater than 100 µM; in experiment [3], 32.5 µM; in experiment [4], 63 µM; in experiment [5], 33 µM. This compound displayed a TGI in [7] of 43.3 µM.

Turning to `CC(=O)[CH-]C(=O)c1ccccc1.CC(=O)[CH-]C(=O)c1ccccc1.Cl.[O-]c1ccnc2ccccc12.[O-]c1ccnc2ccccc12.[Ti+4]`, the GI50 in experiment [9] is 48.7 µM; in experiment [1] it was greater than 100 µM; in experiment [2], greater than 100 µM; in [3], greater than 100 µM; in experiment [6] it was greater than 100 µM; in [7] it was greater than 100 µM. Besides, the GI50 in [8] is greater than 100 µM. Further, the TGI in experiment [9], in experiment [1], in experiment [2], in [3], in experiment [6] and in experiment [7] was greater than 100 µM in each case. In [8], the TGI is greater than 100 µM.

Consider `Cc1ccc(S(=O)(=O)OCOS(=O)(=O)c2ccc(C)cc2)cc1`, for which the TGI in [2], in [4], in experiment [5], in experiment [7] and in experiment [8] was greater than 100 µM in each case.

In the case of `CCOC(=O)C1=C(OC(OCC)C([Se]c2ccccc2)C(C)C)CCC1` (stereo unspecified), the TGI was greater than 100 µM in [9]; 37.4 µM in experiment [1]; greater than 100 µM in experiment [2]; 32.9 µM in [3]; 15.4 µM in experiment [4]; 21.9 µM in experiment [5]. Further, the TGI in experiment [6] was 51.1 µM; in experiment [7] it was greater than 100 µM; in [8] it was 29.4 µM.

As to `COC(=O)C1=CC2C(=O)OC1C1C(=O)NC(=O)C21` (stereo unspecified), the TGI in [9], in [2], in experiment [3], in experiment [4], in [6] and in experiment [7] was greater than 100 µM throughout.

With `O=C(/C=C/c1ccc(Cl)c(Cl)c1)c1ccccc1Cl`, the TGI in experiment [9] worked out at 24.2 µM; in [1], 31.6 µM; in [2], 25.1 µM; in experiment [3], 27.9 µM; in experiment [4], 36.7 µM; in experiment [5], 31.6 µM. The TGI was determined as 31.7 µM in experiment [6], 57.8 µM in experiment [7] and 9.97 µM in [8].

For `CCC12C=CCN(CCc3c([nH]c4ccccc34)/C=C\1)C2` (stereo unspecified), the TGI in experiment [9], in [1], in [2], in experiment [3], in experiment [4] and in [8] was greater than 100 µM each time.

`O=c1nc2sc3ccccc3c(=O)n2[nH]1`: the TGI in [9], in experiment [1], in [2], in [3], in experiment [4] and in experiment [5] was greater than 100 µM each time. The TGI in experiment [6], in experiment [7] and in experiment [8] was greater than 100 µM each time.

In the case of `CCOC(=O)c1cc(=O)n(C)c(=O)n1C`, the TGI in experiment [9], in experiment [1], in [2], in experiment [3], in experiment [5] and in experiment [6] was greater than 100 µM throughout. Besides, the TGI in [7] and in [8] was greater than 100 µM each time.

As for `Cc1ccc2c(c1)-c1c3c(nn1C)-c1ccccc1SC3O2` (stereo unspecified), the TGI in [5], in experiment [6] and in [7] was greater than 100 µM throughout.

Take `C=C1C(=O)O[C@H](c2ccoc2)C[C@@H]1[C@@]1(C)CCCC2(C)C(=O)OCC21` (stereo partly specified): the TGI in experiment [9], in [1], in [2], in experiment [3], in [5] and in experiment [7] was greater than 100 µM in each case. The same compound had a TGI in experiment [8] greater than 100 µM.

`Cc1cccc(NC(=O)C(=O)C(C2OC(=O)c3ccccc32)[N+](=O)[O-])c1C` (stereo unspecified): the TGI in experiment [9] was 24.2 µM; in [1], 26.4 µM; in [2], 35.1 µM; in experiment [3], 25.8 µM; in experiment [4], greater than 100 µM; in experiment [5] it was 20.7 µM. Also, the TGI amounted to 26.7 µM in experiment [7] and 19.7 µM in [8].

For `O=C1c2ccccc2C(=O)N1CCCOCc1c[nH]c(=O)[nH]c1=O`, the TGI in experiment [9], in [1], in [2], in experiment [3], in experiment [5] and in experiment [6] was greater than 100 µM throughout. The TGI in experiment [7] and in experiment [8] was greater than 100 µM throughout.

`CN(C)NC(=O)/C(=C/c1ccc(Cl)cc1)NC(=O)c1ccccc1`: the TGI in experiment [9], in experiment [1], in experiment [2], in [3], in experiment [4] and in experiment [5] was greater than 100 µM each time. Besides, the TGI in experiment [6], in [7] and in experiment [8] was greater than 100 µM each time.

As for `NCCCNc1nc2ccccc2c2c(=O)c3cc(F)ccc3sc12`, the GI50 in experiment [9] is 1.41 µM; in experiment [3], 1.75 µM; in experiment [4] it was 1.48 µM; in experiment [5], 1.42 µM; in experiment [6], 1.31 µM; in experiment [7] it was 1.56 µM. The GI50 in experiment [8] was 1.43 µM. In addition, the TGI in [9] was found to be 2.75 µM; in experiment [3], 3.4 µM; in experiment [4] it was 4.09 µM; in experiment [5], 2.74 µM; in experiment [6], 3.33 µM; in experiment [7] it was 3.31 µM. In experiment [8], the TGI was determined as 2.84 µM.

These data come from PubChem BioAssay (NCI).
